Results: EP4763841A1, “PYRIDAZINONE COMPOUND AND USE THEREOF” (Xi'an Xintong Pharmaceutical Research Co., Ltd., priority 2023, dated 2025)
Where two headings read alike, the source gives them in different places.

Tests used:
[1] = target: THRα (Homo sapiens, UniProt P10827); experiment: HTRF test of agonist-induced SRC3-2 coactivator peptide recruitment to THRα-LBD; assay type: biochemical; conditions: for EC50: HTRF, starting concentration 20 µM, 3-fold dilution, 10 concentrations, duplicate; for agonistic activity on THRα: result in words
Description: (§1) 1. Experiment of binding of compounds to THRβ and THRα
(§2) Test principle: The effect of test compounds on THRβ and THRα was tested by using a method of HTRF. An MAb Anti GST-Eu cryptate antibody binds to GST-tagged THRα-LBD (or THRβ-LBD), while Streptavidin-XL665 binds to a biotin-labeled SRC3-2 coactivator peptide. […] At the same time, the resulting decrease in the distance between XL665-labeled SRC3-2 and an Eu-anti-GST antibody increases a THRFRET signal. The agonistic capacity at this target was assessed by the effect of compounds on the activity of THRα-LBD (THRβ-LBD) at different concentrations.
(§3) • (1) a 1×reaction solution was prepared. • (2) Preparation of compounds: the compound test starting concentration was 20 µM, 3-fold dilution was performed, 10 concentrations were set, and duplicate testing was set for each concentration. 100-fold dilution was performed in a 384-well Source plate to a corresponding solution with a final concentration, and then 200 nL of the solution was transferred to a 384-well reaction plate with Echo550 to be tested. 200 nL of 100% DMSO and a test article were respectively transferred to Min and Max wells. • (3) A 2×protein solution was prepared from the 1×reaction solution. • (4) A 4×SRC3-2 solution was prepared from the 1×reaction solution. • (5) A mixed solution of 4×GST-Eu cryptate and XL665 was prepared from the 1×reaction solution. • (6) 10 µl of the 2×protein solution was added to each well of the reaction plate, centrifugation was performed at 1000 rpm for 1 min, and incubation was performed at room temperature for 30 min. • (7) 5 µl of the 4×SRC3-2 solution was added to each well of the reaction plate, and centrifugation was performed at 1000 rpm for 1 min. • (8) 5 µL of the mixed solution of 4×GST-Eu cryptate and XL665 was added to each well of the reaction plate, centrifugation was performed at 1000 rpm for 1 min, and incubation was performed at 25°C. • (9) A fluorescence signal was read by using EnVision.
THRα test procedures were the same as above.

[2] = target: T1, THRβ (Homo sapiens, UniProt P10828); experiment: HTRF test of agonist-induced SRC3-2 coactivator peptide recruitment to THRβ-LBD; assay type: biochemical; conditions: for agonistic activity on THRβ compared with Resmetirom / selectivity of agonistic effect for THRβ over THRα: result in words
T1 sequence (P10828 217-461 limits assumed): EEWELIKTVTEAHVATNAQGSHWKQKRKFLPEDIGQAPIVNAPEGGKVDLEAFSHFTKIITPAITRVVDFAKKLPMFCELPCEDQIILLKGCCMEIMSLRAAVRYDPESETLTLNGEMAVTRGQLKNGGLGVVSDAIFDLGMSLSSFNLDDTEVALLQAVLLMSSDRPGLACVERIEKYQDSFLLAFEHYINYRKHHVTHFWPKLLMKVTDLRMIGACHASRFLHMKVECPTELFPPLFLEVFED
Description: as §1, §2
Test method: THRβ test procedures:
as §3

[3] = Comparison of compound metabolites by human liver microsome incubation (LC-MS/MS); assay type: in vitro ADME; conditions: 10 µM compound, human liver microsome 1.0 mg/mL, β-NADPH 1.0 mM, 37°C, 60 min
Description: The purpose of this experiment was to evaluate the comparison of the content of major metabolites of human liver microsome incubated compounds.
Sample treatment: a sample was precipitated with acetonitrile (ACN) containing 0.1% formic acid in a ratio of 1:2, and further centrifuged. A supernatant was dried with a nitrogen flow. A residue was reconstituted in […] of 10% ACN and 90% H2O containing 0.1% formic acid. […] of the reconstituted material was injected into an LC-MS/MS system for analysis.

[4] = In vivo pharmacokinetic study of elimination phase half-life after single IV bolus; design: species or system Sprague Dawley rats; conditions: Sprague-Dawley, rat, whole blood, intravenous, I.V bolus, 5 mg/kg, rats, read-out: Elimination phase half-life (T1/2) (converted)
Description: Blood samples were collected from animals (IV group) before administration and at time points of 0.083 h, 0.25 h, 0.5 h, 1 h, 2 h, 4 h, 8 h, and 24 h after the end of administration. • Sample treatment: prior to blood collection, a centrifuge tube with 10 µl of EDTA-K2 and 1.2 mL of 50% acetonitrile-DMSO (a volume ratio of whole blood to 50% acetonitrile-DMSO is approximately 1:4) was placed in an ice box filled with crushed ice. The collected blood was added to the centrifuge tube, vortexed for at least 5 min, and then temporarily stored and transported in the ice box filled with crushed ice; and the blood was centrifuged at 12,000 g for 10 min at 4°C, wherein centrifugation was completed within 1 h after blood collection. A whole blood supernatant after centrifugation was transferred to a newly labeled tube, and transferred to -60°C or below for storage for analytical testing.

[5] = tested on: NASH model of B-DIO mice; experiment: Efficacy test in NASH model of B-DIO mice (HFD + CCL4); assay type: in vivo
Description: An objective of this experiment was to evaluate the pharmacodynamics of compounds of the present invention by using an NASH model of B-DIO mice.
Five C57BL/6 mice on normal diet were assigned to an experimental group G1, and 25 B-DIO mice were randomly assigned to five experimental groups according to the body weight, with 5 mice in each group.
The day of grouping was Day-1, intraperitoneal injection was started on Day 0 in the groups G2-G6 for CCL4 modeling, the concentration of a modeling agent is 0.2 µl/g, the modeling frequency was twice a week, and administration was started on Day 0.
The body weight was measured twice a week after grouping. At the end of the experiment (Day 26), the mice were fasted for 4 h, and non-anticoagulated blood of the mice in the groups G1-G6 was collected and centrifuged, and a serum was taken for blood biochemical testing. Livers in the groups G1-G6 were collected and weighed, 20 mg of the liver was weighed for determination of TC and TG, and the remaining liver was placed in formalin for fixation for pathological observation.

[6] = HTRF, starting concentration 20 µM, 3-fold dilution, 10 concentrations, duplicate, read-out: THRβ (EC50)
[7] = liver, Day 26, 3 mg/kg I.G. Q.D., HFD+CCL4, mean±standard error

Sequence of THRα (P10827 148-410 isoform P10827-2 limits assumed, other chains not shown): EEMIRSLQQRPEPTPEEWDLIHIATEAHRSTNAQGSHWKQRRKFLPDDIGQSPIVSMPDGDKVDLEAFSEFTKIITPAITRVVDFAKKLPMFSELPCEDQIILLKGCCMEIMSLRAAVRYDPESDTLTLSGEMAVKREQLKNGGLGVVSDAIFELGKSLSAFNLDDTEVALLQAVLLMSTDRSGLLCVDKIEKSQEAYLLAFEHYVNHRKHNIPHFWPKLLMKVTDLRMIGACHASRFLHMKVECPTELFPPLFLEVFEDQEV

[2H]C([2H])([2H])C(c1cc(Oc2c(Cl)cc(-n3nc(CF)c(=O)[nH]c3=O)cc2Cl)n[nH]c1=O)C([2H])([2H])[2H] [Compound 1]
EC50 [1]: 0.326 µM
EC50 [2, 6]: 0.02 µM
agonistic activity on THRβ compared with Resmetirom [2]: significantly better than that of Resmetirom

Cc1c(Oc2c(Cl)cc(-n3nc(CF)c(=O)[nH]c3=O)cc2Cl)n[nH]c(=O)c1C(C)C [Compound 16]
EC50 [1]: > 5 µM
agonistic activity on THRα [1]: weak agonistic activity on THRα
EC50 [2, 6]: 0.011 µM
agonistic activity on THRβ compared with Resmetirom [2]: significantly better than that of Resmetirom
selectivity of agonistic effect for THRβ over THRα [2]: selective agonistic effects on THRβ
Monooxidized metabolite percent content (%) [3]: 9.7%
Monooxidized metabolite percent content (%) ([3]; listed as compound 16): 9.7%

Cc1c(C(C)C)c(Oc2c(Cl)cc(-n3nc(CF)c(=O)[nH]c3=O)cc2Cl)n[nH]c1=O [Compound 17]
EC50 [1]: > 5 µM
agonistic activity on THRα [1]: weak agonistic activity on THRα
EC50 [2]: 0.046 µM
agonistic activity on THRβ compared with Resmetirom [2]: significantly better than that of Resmetirom
selectivity of agonistic effect for THRβ over THRα [2]: selective agonistic effects on THRβ

CC(C)c1cc(Oc2c(Cl)cc(-n3nc(CF)c(=O)[nH]c3=O)cc2Cl)n[nH]c1=O [Compound X1, reference compound]
EC50 [1]: 0.095 µM
EC50 [2, 6]: 0.022 µM

CC(C)c1cc(Oc2c(Cl)cc(-n3nc(C#N)c(=O)[nH]c3=O)cc2Cl)n[nH]c1=O [Resmetirom, reference compound]
half-life [4]: 2.98 h
area proportion of lipid droplets in the liver (oil red O) compared with the model group G2 ([5]; G3, 3 mg/kg, Day 26, result in words (FIG. 8)): decreased but no significant difference was seen
liver fibrosis (Sirius red) compared with the model group G2 ([5]; G3, 3 mg/kg, Day 26, result in words (FIG. 9)): certain improvement effects on liver fibrosis
TC [5, 7]: 56.44 ± 0.85 µmol/g
TG [5, 7]: 74.26 ± 4.34 µmol/g
TG ([5]; serum, Day 26, 3 mg/kg I.G. Q.D., HFD+CCL4, mean±standard error): 1.17 ± 0.06 mM
